Laboratory results: patent US6544727B1, “Methods and devices for the removal of psoralens from blood products” (Cerus Corporation, priority 1995, dated 2003)
Read-outs that look alike come from different tables or passages of the source. Blank lines part the entries; values can stand above or below the compound they belong to.

Experiments:
[1] = HPLC retention time as rough estimate of hydrophobicity; type: physicochemical; details: C-18 reversed phase, methanol/KH2PO4 gradient
Procedure: Adsorption data were then obtained by HPLC analysis on the test and control samples. Specifically, a 200 μl sample volume of PC was removed from each tube following the incubation period (special care being taken to ensure that no adsorbent particles were removed with the test samples). […] The addition of methanol lyses platelets and precipitates plasma proteins so that psoralen contained within the platelets is not excluded by the assay.
Since each of the psoralens were analyzed using the same type of BPLC assay, one can use the psoralens' relative retention times to rank them according to increasing hydrophobicity. […] Strong interactions with cells or plasma proteins could compete with adsorption, thereby interfering with resin binding.

[2] = Adsorption capacity of Amberlite adsorbents for Psoralens A, B and C from PC (Table V); type: physicochemical; details: batch adsorption
Procedure: Stock solutions (15 mM) of each psoralen ([…], and C) were prepared in DMSO. […] Thereafter, control samples and test samples were prepared for HPLC analysis. Test samples were prepared by adding a 3.0 mL aliquot of each dilution to a 5 mL polypropylene tube containing 0.1 g of adsorbent; control samples were prepared in an analogous manner with the exception that the adsorbent was omitted. The test and control samples were then incubated for 6 hours at 22° C. by rotating gently on a mixer (Barnstead, Thermolyne Model 400110). […] Adsorption data were then obtained by HPLC analysis on the test and control samples. Specifically, a 200 μl sample volume of PC was removed from each tube following the incubation period (special care being taken to ensure that no adsorbent particles were removed with the test samples). […] The addition of methanol lyses platelets and precipitates plasma proteins so that psoralen contained within the platelets is not excluded by the assay. […] The slopes of the calibration curves were determined by linear least square method (y-intercept constrained to zero). […] The amount (μmoles) of psoralen which the adsorbent had removed from the PC was calculated [V(Co-Cf)]. […] As previously discussed, the slope of the adsorbent isotherm, K (L/g), is termed the adsorption constant and can be determined by a linear regression of the adsorption data.

[3] = test system: R17 bacteriophage; experiment: R17 bacteriophage inactivation at constant concentration, varying doses of UV light; type: cell-based; details: 1.0-3.0 J/cm^2, FIGS. 11-17
Procedure: Compounds of the present invention were also tested at a constant concentration for varying doses of UV light. Three sets of 1.5 mL tubes were prepared containing 0.6mL aliquots of R17 in DMEM (prepared as described above). The compound tested was added at the desired concentration and the samples were vortexed. The samples were then irradiated at intervals of 1.0 J/cm^2, until 3.0 J/cm^2 was reached. Between each 1.0 J/cm^2 interval, 100 μL was removed from each sample and placed in the first corresponding dilution tube, then five sequential dilutions were performed for each compound tested, at all 3 irradiation doses, as described above in this example.
Then 50 μL of Hfr 3000 bacteria was added to each tube, 3 mL of top agar was added and the tube contents were vortexed The contents of each tube was poured into its own LB plate and the plates were incubated overnight at 37° C. Plaques were counted by visual inspection the following morning.

[4] = test system: p-selectin (GMP140); experiment: GMP-140 (p-selectin) expression on platelets, flow cytometry with CD62; type: cell-based, human; details: 100 μM compound, 5 Joules/cm^2, 5 days storage; FIGS. 21C-24C
Procedure: To measure the effects of the present compounds and methods of decontamination on platelet function using these four indicators, four samples were prepared for each compound tested, two control samples and two containing compound. Three units of human platelets were obtained from the Sacramento Blood Center, Sacramento, Calif. These were each transferred under sterile conditions to 50 ml centrifuge tubes, then aliquots of each unit were transferred into a second set of 50 ml sterile centrifuge tubes. To each centrifuge tube containing platelet concentrate (PC), an aliquot of compound stock was added to reach a final concentration of 100 μM of compound. […] The samples were pipetted gently up and down to mix. Then aliquots (either 3 ml or 8 ml) of each sample was transferred to two sterile Teflon™ Medi-bags™ (American Fluoroseal Co., Silver Springs, Md.) (presently owned by The West Company, Lionville, Pa.). Samples were treated in one of two different sized bags, having either 3 ml or 8 ml capacity. […] For each compound tested, two control samples without compound were prepared by again removing aliquots of platelet concentrate (17 ml if using an 8 ml bag, […] if using a 3 ml bag) from the same one of the first set of 50 ml centrifuge tubes from which the compound sample was drawn, and dividing into Medibags, as before. One of each pair of Medibags containing a compound, and one of each pair of control Medibags, were illuminated for 5 Joules/cm^2 on the device described in Example 1, above. Then all experimental and control Medibags were placed on a platelet shaker for storage for 5 days. The same experiments were repeated several times to obtain more statistically meaningful data, as represented by “n”, the number of data points represented, in the graphs of FIGS. 21-24, discussed below.

[5] = test system: platelets; experiment: Platelet count, Sysmex cell counter; type: cell-based, human; details: 100 μM compound, 5 Joules/cm^2, Day 5; FIGS. 21A-24A
Procedure: Samples were diluted 1:3 in blood bank saline.

[6] = test system: mouse reticulocytes; details: increased dose levels in male Balb/c mice
Procedure: Male Balb/c mice were then injected with 0.1 ml of a compound solution via the tail vein. At least 3 mice were injected per dose level. Saline only was used as a negative control. For a positive control, cyclophosphamide (cycloPP) was administered at a dose of 30 mg/kg. In the experimental group, the injections were repeated once per day for four days. In the positive control group, the sample was administered only once, on day three. On day 5, several microliters of blood were withdrawn from each subject and smeared on a glass slide. Cells were fixed in absolute methanol and stored in a slide rack.
For analysis, cells were stained with acridine orange and visualized under a fluorescence microscope by counting: (i) the number of reticulocytes per 5000 erythrocytes; and (ii) the number of micronucleated reticulocytes per 1000 reticulocytes. Reticulocytes were distinguished by their red fluorescence due to the presence of RNA. Micronuclei were distinguished by their green fluorescence due to the presence of DNA. The percentage of reticulocytes (%PCE) was then calculated. A decrease in the frequency of […] in the percentage of reticulocytes, is an indication of bone marrow toxicity. The percentage of reticulocytes with micronuclei (%PCE with MN) was also calculated. An increase in %PCE with MN is a measure of clastogenicity.
After initial results were determined, the experiment was repeated using increased dose levels, until: (i) Micronucleus formation was seen; or (ii) Bone marrow toxicity was observed; or (iii) The lethal dose was reached; or (iv) A dose of 5 g/kg was administered.

[7] = test system: HIV-1; details: 1 minute irradiation, starting titer approximately 5.4 logs (Table 11)
[8] = test system: R17 bacteriophage; experiment: R17 bacteriophage inactivation assay, varying compound concentration; type: cell-based; details: 32 μM; starting titer approx. 7.5 logs; 1 minute irradiation
Procedure: An r-17 bacteriophage assay was used in this example to predict pathogen inactivation efficiency and to determine nucleic acid binding of the photoreactive binding compounds of the present invention. In the r-17 assay, the bacteriophage was placed in a solution with each compound tested and was then irradiated. The ability of the phage to subsequently infect bacteria and inhibit their growth was measured. The bacteriophage was selected for its relatively accessible nucleic acid such that the culture growth inhibition would accurately reflect nucleic acid damage by the test compounds. The bacteriophage assay for nucleic acid binding to test compounds offers a safe and inexpensive procedure to identify compounds likely to display efficient pathogen inactivation.
The R17 was grown up in Hfr 3000 bacteria, approximate titer 5×10^11. (R17 and Hfr 3000 were obtained from American Tissue Culture Collection (ATCC), Washington, D.C.) The R17 phage stock was added to a solution of 15% fetal bovine serum in Dulbecco's Modified Eagles Medium (DMEM) to a final phage concentration of 10^9/mL. An aliquot (0.5 mL) was transferred to a 1.5 mL snap-top polyethylene tube. An aliquot (0.004-0.040 mL) of the test compound stock solution prepared in water, ethanol or dimethylsulfoxide at 0.80-8.0 mM was added to the tube. Compounds were tested at concentrations between 4 μM and 320 μM. […] The tubes were placed in a light device as described in EXAMPLE 1 and irradiated for between 1 and 10 minutes. Sterile 13 mL dilution tubes were prepared; each test compound required one tube with 0.4 mL of Luria broth (LB) and five tubes containing 0.5 mL of LB broth. To make the dilutions, a 0.100 mL aliquot of the irradiated solution of phage and test compound was added to the first dilution tube of 0.4 mL of media then 0.020 mL of this solution was added to the second tube of 0.5 mL medium (1:25). The second solution was then diluted serially (1:25) into the remaining tubes. To each diluted sample was added 0.050 mL of Hfr 3000 bacteria cultured overnight and 3 mL of molten LB top agar and the mixed materials were poured onto LB broth plates. After the top agar hardened, the plates were incubated at 37° C. overnight. The plaque forming units were then counted the following morning and the titer of the phage remaining after phototreatment was calculated based on the dilution factors.
The following controls were run: the “phage only” in which phage was not treated with test compound and not irradiated (listed as “starting titer” in the tables below); the “UV only” in which the phage was irradiated in the absence of test compound; and the “dark” control in which the phage/test compound solution was not irradiated before it was diluted and plated.

[9] = test system: Pseudomonas; experiment: Bacterial inactivation, colony forming units; type: cell-based; details: 16 μM; 5 J/cm^2 irradiation; starting titer 6.5 logs
Procedure: The bacteria, a strain of Pseudomonas, was inoculated into LB with a sterile loop and grown overnight in a shaker at 37° C. Based on the approximation that one OD at 610 mn is equivalent to 5×10^8 colony forming units (cfu)/mL, a 1:10 dilution of the culture was measured on a spectrophotometer, (manufactured by Shimatsu). The bacterial culture was added to a solution of 15% fetal bovine serum in DMEM to a final bacteria concentration of approximately 10^6/mL. An aliquot (0.8 mL) was transferred to a 1.5 mL snap-top polyethylene tube. An aliquot (0.004-0.040 mL) of the test compound stock solution prepared in water, ethanol or dimethylsulfoxide at 0.80-8.0 mM was added to the tube. Compounds were tested at a concentration of 16 μM. The tubes were placed in a light device as described in EXAMPLE 1 and irradiated with 1.3 J/cm^2, 1.2 J/cm^2, and finally 2.5 J/cm^2, for a total of 5 J/cm^2. 150 μL were removed for testing after each pulse period. Sterile 13 mL dilution tubes were prepared; each test compound required one tube with 0.4 mL of LB broth and four tubes containing 0.5 mL of LB broth. […] The colony forming units were then counted the following morning and the titer of the phage remaining after phototreatment was calculated based on the dilution factors. […]

[10] = test system: Salmonella typhimurium tester strains; experiment: Ames Salmonella dark mutagenicity test, overall assessment; type: cell-based; details: two-fold or greater increase in revertants above background and dose dependence
Procedure: A brief description for each procedure is given here. […] TA97a, TA98, TA1537 and TA1538 are frameshift tester strains. TA100 and TA102 are base-substitution tester strains.
This served as the background controls.
For all experiments, the pre-incubation procedure was used.

HPLC retention time (rough estimate of hydrophobicity) [1]: 7.8 min
Compound: CC[N+](CC)(CC)Cc1c(C)oc2c(C)c3oc(=O)cc(C)c3cc12 [Psoralen A, 4′-(triethylamino) methyl-4,5′,8-trimethylpsoralen]

ease of removal from PC (in words) [2]: most easily removed from PC
HPLC retention time (rough estimate of hydrophobicity) [1]: 12.0 min
Compound: CCN(CC)CCCOc1c2occc2c(Br)c2ccc(=O)oc12 [Psoralen C, 5-bromo-8-(diethylaminopropyloxy)-psoralen]

HPLC retention time (rough estimate of hydrophobicity) [1]: 20.0 min
Compound: COc1c2occc2c(Br)c2ccc(=O)oc12 [Psoralen B, 5-bromo-8-methoxypsoralen]

Further lines, the compound ahead of its results:

Compound: Cc1cc(=O)oc2c(C)c3oc(CNCCCCN)c(C)c3cc12 [Compound 17, 5′-(6-amino-2-aza)hexyl-4,4′,8-trimethylpsoralen]
R17 inactivation efficiency compared with AMT (in words) [3]: more efficient at inactivating R17 than was AMT
GMP-140 expression, treated sample (PCD) against day 5 untreated control (in words) [4]: little or no difference
platelet count, treated against controls (in words) [5]: higher platelet count than samples treated with light alone
bone marrow toxicity and micronucleus formation on dose escalation (in words) [6]: the acutely lethal dose was reached before there were any signs of bone marrow toxicity or micronucleus formation
HIV Log Kill ([7]; 16 μM): 1.2 log
HIV Log Kill ([7]; 32 μM): 2.9 log
HIV Log Kill ([7]; 64 μM): 3.4 log

Compound: COc1c2occc2cc2ccc(=O)oc12 [Compound 8-MOP, 8-Methoxypsoralen, reference compound]
R17 log kill (32 μM) [8]: 0 log
log kill of Pseudomonas [9]: 1.9 logs
mutagenic response in the Ames assay (in words) [10]: weak base-substitution mutagen in TA102 at 500 μg/plate
